Experiments:
MCF-7 cells = experiment: Flow cytometry of cell cycling (G1 phase); type: cell-based, human; conditions: up to 3 days; control approximately 50% in G1
Description: Flow cytometry was used to determine the effects of DIM and IFNγ on cell cycling. […] In control groups approximately 50% of the cells were in G1. Treatment with IFNγ alone caused a small progressive increase in G1 blocked cells of up to 10% above the DMSO control, after 3 days.

[1] = Estimated blood concentration of DIM from dietary broccoli; parameters: species or system human; conditions: approximately 12 mg DIM from 200 g broccoli daily, maximum absorption assumed
Protocol: We observed the immune response activating activity of DIM at physiologically relevant concentrations. A person of average weight who consumes 200 g of broccoli daily will obtain approximately 12 mg of DIM. With maximum absorption of DIM, the blood concentration of DIM will reach approximately 10 μM. Therefore, in vivo concentrations of DIM from dietary Brassica vegetables represent the effective levels of DIM in vitro.

[2] = system: OAS-Luc reporter (promoter and 5′-flanking region of p69-OAS); experiment: OAS-Luc luciferase reporter in transiently transfected MCF-7 cells; type: cell-based, human; conditions: 24 h treatment
Protocol: In a further experiment to examine whether the inducing effects of DIM are at the transcriptional level, the effect of DIM on activities of two luciferase reporter constructs, OAS-Luc (12) and 4GAS-Luc (13) was examined. OAS-Luc contains the promoter and 5′-flanking region (−972) of p69-OAS and GAS-Luc contains four repeats of the consensus GAS element. MCF-7 cells transiently transfected with these reporter constructs were treated with IFNγ, DIM, or a combination of both for 24 h. […] IFNγ induced transcriptional activity of this reporter in a concentration dependent manner to a maximum of about 1.8 fold, which is less than the response of the endogenous gene of about 5.0 fold. In marked contrast to the maximum effects of combined treatments of the inducers on endogenous gene expression (nearly 12-fold increase compared to vehicle treated cells), the reporter gene construct responded with less than a 3-fold increase over the controls.

[3] = system: DMBA-induced mammary tumorigenesis; conditions: repeated oral administrations during promotion stage, rodents; cited from earlier work
[4] = system: IL-6, G-CSF, IL-12, TNF-α and IFNγ; experiment: Serum levels of cytokines in mice; type: in vivo
[5] = system: Y. enterocolitica WA-314 serotype O:8; experiment: Y. enterocolitica infection of BALB/c mice, spleen bacterial numbers; type: in vivo
Protocol: Female, 6- to 8-week-old BALB/c mice are purchased from Charles River and kept under specific-pathogen-free conditions (positive-pressure cabinet).
Mice are given 30 μg/kg/day of a DIM or one of 24 substituted DIM compounds (Table 1, supra) orally, starting at 1 day prior to infection.
Freshly thawed, plasmid-harboring Y. enterocolitica WA-314 serotype O:8 organisms suspended in 0.1 ml of sterile phosphate-buffered saline (PBS), pH 7.4, are used for intravenous and oral infection as described previously (Autenrieth, et al. 1994. Infect. Immun. 62:2590-2599). The actual number of bacteria administered is determined by plating serial dilutions of the inoculum on Mueller-Hinton agar and counting CFU after an incubation period of 36 h at 26C. For kinetic studies, five mice per group are killed by carbon dioxide asphyxiation on days 1, 3, and 7 postinfection (p.i.) with 5×10^3 bacteria. Spleens are aseptically removed, and single-cell suspensions prepared by using 5 ml of PBS containing 0.1% bovine serum albumin. Duplicates of 0.1 ml of serial dilutions of these preparations are plated on Mueller-Hinton agar. The limit of detectable CFU is 25 (log1025=1.4).
In single end-point studies, bacterial numbers in spleens of treated BALB/c mice 7 days p.i. with 2×10^3 Y. enterocolitica show significant reductions compared with untreated controls.

IFNγ = experiment: Sandwich ELISA of IFNγ in medium from confluent MCF-7 cultures; type: cell-based, human; conditions: vehicle control virtually undetectable
Protocol: Immune response activating effects of the DIM analogs are examined with cell-based assays for cytokine and cytokine receptor expression. […] We also used a sensitive sandwich ELISA assay to examine levels of IFNγ in medium from confluent cultures of MCF-7 cells that were treated for up to 3 days. DIM derivatives confirmed to have immune response activating activity in our reporter and ELISA assays are subsequently screened in a whole animal cytokine production and Y. enterocolitica infection studies, as described below in Examples VIII and IX.
Using a sensitive sandwich ELISA assay, we examined levels of IFNγ in medium from confluent cultures of MCF-7 cells that were treated with DIM for up to 3 days. […] Levels of IFNγ in the medium of cultured cells were increased following incubations for 1 and 3 days from virtually undetectable levels in the vehicle treated control to approximately 50±10 pg/mL and 80±30 pg/mL, respectively, for the indole treated cells.

IL-6 = experiment: Serum IL-6 by ELISA in mice after DIM; type: in vivo; conditions: 30 μg/kg DIM orally
Protocol: We firstly investigated the effect of unsubstituted DIM on the production of IL-6, G-CSF, IL-12, TNF-α and IFNγ. A groups of 3 mice was given 30 μg/kg of unsubstituted DIM orally and then sacrificed at 1, 3, 5, 8, and 24 h after drug challenge. Serum was collected, pooled, and assayed for IL-6, G-CSF, IL-12 and TNF-α by ELISA. […] DIM produced an increase in circulating levels of G-CSF and TNF-α with the 3 h time point being maximal. […] DIM also stimulated IL-12 and kinetics were slightly different since the increased levels were sustained for at least 24 h.

STAT1 = STAT1 phosphorylation (Tyr-701) by Western blot; type: cell-based, human; conditions: DIM 6 or 24 h, with or without 15 min IFNγ exposure
Description: To acsertain the role of GAS element activation in transcriptional activation by DIM, we examined the effect of this indole on downstream events in the GAS signaling pathway. For this purpose, the effects of DIM on phosphorylation of the signal transduction and activator of transcription factor 1 (STAT1), and the binding of the activated STAT1 dimer to the cognate GAS responsive element were examined. Phosphorylation of STAT1 by Janus-activated kinase (JAK) is the first step in IFNγ signaling following binding to IFNGR1. For these studies, cells were pretreated with DIM for 6 or 24 h followed by a 15 min. exposure to IFNγ. STAT1 phosphorylation levels in cell lysates of DIM-treated cells were compared to controls that received IFNγ but had not been treated with DIM. Phosphorylation was measured by Western blot analysis using an antibody specific to STAT1 phosphorylated on Tyr-701 residue.

SMILES: c1ccc2c(Cc3c[nH]c4ccccc34)c[nH]c2c1 [DIM, 3,3′-Diindolylmethane]
- Increase in G1 blocked cells above the DMSO control (MCF-7 cells): up to 30%
- Blood concentration of DIM [1]: approximately 10 μM
- Maximum induction of OAS-Luc reporter [2]: about 2.3 fold
- Inhibition of tumor growth [3]: ≤ 95%
- Cytokine production, including IFNγ ([4]; intravenous administration): elevated cytokine production
- Serum levels of cytokines ([4]; oral, 1-24 h after challenge): stimulated a time-dependent increase in serum levels of cytokines
- Severity of yersiniae infection [5]: reduce the severity of yersiniae infection
- Level of IFNγ in the medium of cultured cells (IFNγ; MCF-7, incubation 1 day): approximately 50±10 pg/mL
- Level of IFNγ in the medium of cultured cells (IFNγ; MCF-7, incubation 3 days): ~80 ± 30 pg/mL
- Time of peak IL-6 induction (IL-6): 5 h
- STAT1 phosphorylation (Tyr-701) (STAT1): did not induce STAT1 phosphorylation

Reference: US20060100264A1, “3,3'-Diindolylmethane immune activating compositions” (priority 2004, published 2006)
